# Earlier results as cited in patent US6613244B2, “Ironing aid composition” (Unilever Home & Personal Care USA, division of Conopco, Inc., priority 2000, dated 2003).
# Conditions: stated in words, related to ClogP
smiles,measurement,value
CC(=O)OC(c1ccccc1)C(Cl)(Cl)Cl (stereo not shown) [rose acetate],solubility in water,not easily soluble in water
